In patent US11053204B2, “Pyrimidinyloxy benzene derivatives as herbicides” (FMC Corporation, priority 2015, dated 2021):

How the values were obtained:
Type in all cases: in vivo
[1] = tested on: ducksalad (Heteranthera limosa); test: Test B flooded paddy test, plant response rating; details: Heteranthera limosa, 312 h; 250 g ai/ha; Flood; scale of 0 to 100 where 0 is no effect and 100 is complete control; 13 to 15 days
In short: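 Pots were flooded to 3 cm above the soil surface at treatment, compound applied directly to the paddy water, and that depth held throughout. Plants were kept in a greenhouse for 13 to 15 days, then visually rated against untreated controls.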

kochia (Kochia scoparia) [2] = test: Test A preemergence, visual injury rating; details: Bassia scoparia, pre-emergence, 240 h, 0 to 100 scale (0 no effect, 100 complete control), read-out: Kochia plant response rating
In short: (§1)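 Greenhouse pot test, loam/sand soil. Formulation: non-phytotoxic solvent mix plus surfactant. Pre: directed spray onto soil after sowing. Post: plants at 1–2 leaf, 2–10 cm. Rated visually vs untreated controls at ~10 d, 0 (no effect) to 100 (complete control).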

[3] = tested on: barnyardgrass (Echinochloa crus-galli); test: Test A preemergence, visual injury rating; details: Echinochloa crus-galli, pre-emergence, 240 h, 0 to 100 scale (0 no effect, 100 complete control), read-out: Barnyardgrass plant response rating
In short: as §1

[4] = tested on: Italian ryegrass (Lolium multiflorum); test: Test A preemergence, visual injury rating; details: Lolium multiflorum, pre-emergence, 240 h, 0 to 100 scale (0 no effect, 100 complete control), read-out: Ryegrass, Italian plant response rating
In short: as §1

[5] = tested on: ragweed (common ragweed, Ambrosia elatior); test: Test A preemergence, visual injury rating; details: Ambrosia artemisiifolia, pre-emergence, 240 h, 0 to 100 scale (0 no effect, 100 complete control), read-out: Ragweed plant response rating
In short: as §1

[6] = tested on: giant foxtail (Setaria faberii); test: Test A preemergence, visual injury rating; details: Setaria faberi, pre-emergence, 240 h, 0 to 100 scale (0 no effect, 100 complete control), read-out: Foxtail, Giant plant response rating
In short: as §1

[7] = tested on: pigweed (Amaranthus retroflexus); test: Test A preemergence, visual injury rating; details: Amaranthus retroflexus, pre-emergence, 240 h, 0 to 100 scale (0 no effect, 100 complete control), read-out: Pigweed plant response rating
In short: as §1

[8] = tested on: morningglory (Ipomoea coccinea); test: Test C postemergence, plant response rating; details: Ipomoea, post-emergence
In short: (§2)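 Preemergence: seeds sown in loam–sand blend or silt loam and sprayed with test chemicals in a non-phytotoxic surfactant-containing solvent. Postemergence: potted plants at 2–18 cm (1–4-leaf stage) sprayed with the same formulation. After 13–15 d in greenhouse, visual rating versus controls on 0 (no effect) to 100 (complete control) scale.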

[9] = tested on: velvetleaf (Abutilon theophrasti); test: Test C postemergence, plant response rating; details: Abutilon theophrasti, post-emergence
In short: as §2

kochia (Kochia scoparia) [10] = test: Test C postemergence, plant response rating; details: Bassia scoparia, post-emergence
In short: as §2

[11] = tested on: barnyardgrass (Echinochloa crus-galli); test: Test C postemergence, plant response rating; details: Echinochloa crus-galli, post-emergence
In short: as §2

[12] = tested on: nutsedge, yellow (yellow nutsedge, Cyperus esculentus); test: Test C postemergence, plant response rating; details: Cyperus, post-emergence
In short: as §2

[13] = tested on: lambsquarters (Chenopodium album); test: Test C postemergence, plant response rating; details: Chenopodium album, post-emergence
In short: as §2

[14] = tested on: crabgrass, large (large crabgrass, Digitaria sanguinalis); test: Test C postemergence, plant response rating; details: Digitaria sanguinalis, post-emergence
In short: as §2

[15] = tested on: ragweed (common ragweed, Ambrosia elatior); test: Test C postemergence, plant response rating; details: Ambrosia artemisiifolia, post-emergence
In short: as §2

[16] = tested on: oat, wild (wild oat Avena fatua); test: Test C postemergence, plant response rating; details: Avena fatua, post-emergence
In short: as §2

corn (Zea mays) = test: Test C postemergence, plant response rating; details: Zea mays, post-emergence
In short: as §2

[17] = 62 g ai/ha, scale 0 to 100 (0 no effect, 100 complete control)
[18] = 125 g ai/ha, scale 0 to 100 (0 no effect, 100 complete control)

For `O=C(OCCC(F)(F)F)c1c(Br)cccc1Oc1ncc(Cl)cn1` [Compound 26, 3,3,3-trifluoropropyl 2-bromo-6-[(5-chloro-2-pyrimidinyl)oxy]benzoate], which pest or weed control at 250 g/ha [1] is on record?
The pest or weed control at 250 g/ha was 100%.

And the pest or weed control at 125 g/ha (kochia (Kochia scoparia) [2]; 125 g ai/ha)?
Its pest or weed control at 125 g/ha is 100%.

What about the pest or weed control at 500 g/ha (kochia (Kochia scoparia) [2]; 500 g ai/ha) of the same compound?
The pest or weed control at 500 g/ha was 100%.

And the pest or weed control at 125 g/ha ([3]; 125 g ai/ha)?
Its pest or weed control at 125 g/ha is 100%.

What about the pest or weed control at 500 g/ha ([3]; 500 g ai/ha) of the same compound?
Its pest or weed control at 500 g/ha is 100%.

And the pest or weed control at 125 g/ha ([4]; 125 g ai/ha)?
The pest or weed control at 125 g/ha was 70%.

What about the pest or weed control at 500 g/ha ([4]; 500 g ai/ha) of the same compound?
The pest or weed control at 500 g/ha was 100%.

And the pest or weed control at 125 g/ha ([5]; 125 g ai/ha)?
Its pest or weed control at 125 g/ha is 20%.

And the pest or weed control at 500 g/ha ([5]; 500 g ai/ha)?
Its pest or weed control at 500 g/ha is 20%.

And the pest or weed control at 125 g/ha ([6]; 125 g ai/ha)?
Its pest or weed control at 125 g/ha is 100%.

And the pest or weed control at 500 g/ha ([6]; 500 g ai/ha)?
The pest or weed control at 500 g/ha was 100%.

What about the pest or weed control at 125 g/ha ([7]; 125 g ai/ha) of the same compound?
The pest or weed control at 125 g/ha was 100%.

And the pest or weed control at 500 g/ha ([7]; 500 g ai/ha)?
The pest or weed control at 500 g/ha was 100%.

What about the pest or weed control at 16 g/ha ([8]; 16 g ai/ha, scale 0 to 100) of the same compound?
The pest or weed control at 16 g/ha was 65%.

What about the pest or weed control at 31 g/ha ([8]; 31 g ai/ha, scale 0 to 100) of the same compound?
The pest or weed control at 31 g/ha was 60%.

What about the pest or weed control at 62 g/ha [8, 17] of the same compound?
Its pest or weed control at 62 g/ha is 65%.

What about the pest or weed control at 125 g/ha [8, 18] of the same compound?
The pest or weed control at 125 g/ha was 85%.

And the pest or weed control at 16 g/ha ([9]; 16 g ai/ha, scale 0 to 100)?
The pest or weed control at 16 g/ha was 30%.

What about the pest or weed control at 31 g/ha ([9]; 31 g ai/ha, scale 0 to 100) of the same compound?
The pest or weed control at 31 g/ha was 55%.

What about the pest or weed control at 62 g/ha ([9]; 62 g ai/ha, scale 0 to 100 (0 no effect, 100 complete control), read-out: Velvetleaf plant response rating) of the same compound?
Its pest or weed control at 62 g/ha is 75%.

What about the pest or weed control at 125 g/ha [9, 18] of the same compound?
Its pest or weed control at 125 g/ha is 80%.

And the pest or weed control at 16 g/ha (kochia (Kochia scoparia) [10]; 16 g ai/ha, scale 0 to 100)?
The pest or weed control at 16 g/ha was 90%.

What about the pest or weed control at 31 g/ha (kochia (Kochia scoparia) [10]; 31 g ai/ha, scale 0 to 100) of the same compound?
The pest or weed control at 31 g/ha was 90%.

And the pest or weed control at 62 g/ha (kochia (Kochia scoparia) [10]; [17])?
Its pest or weed control at 62 g/ha is 90%.

And the pest or weed control at 125 g/ha (kochia (Kochia scoparia) [10]; [18])?
Its pest or weed control at 125 g/ha is 95%.

And the pest or weed control at 16 g/ha ([11]; 16 g ai/ha, scale 0 to 100)?
The pest or weed control at 16 g/ha was 10%.

What about the pest or weed control at 31 g/ha ([11]; 31 g ai/ha, scale 0 to 100) of the same compound?
The pest or weed control at 31 g/ha was 10%.

What about the pest or weed control at 62 g/ha [11, 17] of the same compound?
Its pest or weed control at 62 g/ha is 20%.

And the pest or weed control at 125 g/ha [11, 18]?
The pest or weed control at 125 g/ha was 30%.

What about the pest or weed control at 16 g/ha ([12]; 16 g ai/ha, scale 0 to 100) of the same compound?
Its pest or weed control at 16 g/ha is 5%.

What about the pest or weed control at 31 g/ha ([12]; 31 g ai/ha, scale 0 to 100) of the same compound?
The pest or weed control at 31 g/ha was 10%.

And the pest or weed control at 62 g/ha [12, 17]?
The pest or weed control at 62 g/ha was 10%.

What about the pest or weed control at 125 g/ha [12, 18] of the same compound?
Its pest or weed control at 125 g/ha is 10%.

What about the pest or weed control at 16 g/ha ([13]; 16 g ai/ha, scale 0 to 100) of the same compound?
Its pest or weed control at 16 g/ha is 75%.

And the pest or weed control at 31 g/ha ([13]; 31 g ai/ha, scale 0 to 100)?
Its pest or weed control at 31 g/ha is 90%.

What about the pest or weed control at 62 g/ha [13, 17] of the same compound?
The pest or weed control at 62 g/ha was 98%.

And the pest or weed control at 125 g/ha [13, 18]?
The pest or weed control at 125 g/ha was 98%.

And the pest or weed control at 16 g/ha ([14]; 16 g ai/ha, scale 0 to 100)?
Its pest or weed control at 16 g/ha is 10%.

What about the pest or weed control at 31 g/ha ([14]; 31 g ai/ha, scale 0 to 100) of the same compound?
The pest or weed control at 31 g/ha was 20%.

What about the pest or weed control at 62 g/ha [14, 17] of the same compound?
The pest or weed control at 62 g/ha was 25%.

What about the pest or weed control at 125 g/ha [14, 18] of the same compound?
Its pest or weed control at 125 g/ha is 65%.

And the pest or weed control at 16 g/ha ([15]; 16 g ai/ha, scale 0 to 100)?
The pest or weed control at 16 g/ha was 40%.

And the pest or weed control at 31 g/ha ([15]; 31 g ai/ha, scale 0 to 100)?
Its pest or weed control at 31 g/ha is 55%.

What about the pest or weed control at 62 g/ha [15, 17] of the same compound?
Its pest or weed control at 62 g/ha is 55%.

What about the pest or weed control at 125 g/ha [15, 18] of the same compound?
Its pest or weed control at 125 g/ha is 90%.

And the pest or weed control at 16 g/ha ([16]; 16 g ai/ha, scale 0 to 100)?
The pest or weed control at 16 g/ha was 10%.

And the pest or weed control at 31 g/ha ([16]; 31 g ai/ha, scale 0 to 100)?
The pest or weed control at 31 g/ha was 10%.

What about the pest or weed control at 62 g/ha [16, 17] of the same compound?
The pest or weed control at 62 g/ha was 15%.

What about the pest or weed control at 125 g/ha [16, 18] of the same compound?
The pest or weed control at 125 g/ha was 35%.

And the Corn plant response rating (crop injury, 0 = no effect, 100 = complete kill) at 16 g/ha (corn (Zea mays); 16 g ai/ha, scale 0 to 100)?
Its Corn plant response rating (crop injury, 0 = no effect, 100 = complete kill) at 16 g/ha is 20%.

What about the Corn plant response rating (crop injury, 0 = no effect, 100 = complete kill) at 31 g/ha (corn (Zea mays); 31 g ai/ha, scale 0 to 100) of the same compound?
Its Corn plant response rating (crop injury, 0 = no effect, 100 = complete kill) at 31 g/ha is 25%.

And the plant injury at 62 g/ha (corn (Zea mays); [17])?
Its plant injury at 62 g/ha is 20%.

What about the plant injury at 125 g/ha (corn (Zea mays); [18]) of the same compound?
Its plant injury at 125 g/ha is 25%.
